Measurements from patent EP0929311B1, “INHIBITION OF APOPTOSIS USING INTERLEUKIN-1 beta-CONVERTING ENZYME (ICE)/CED-3 FAMILY INHIBITORS” (Idun Pharmaceuticals, Inc., priority 1996, dated 1998).
Residues, ends and D or L forms follow the SMILES beside them. *: point of attachment. Cbz = O=C(OCc1ccccc1)*; CH2F = FC*

Tested on: granulocytes
Assay: Granulocyte/neutrophil survival in culture, hypodiploid nuclei by propidium iodide flow cytometry
Type: cell-based
Conditions: at 48 hours; granulocytes cultured at 37°C, hypodiploid DNA
Experimental: Whole blood anticoagulated with Acid Citrate Dextrose (ACD) with a ratio of 1:5 ACD to blood was collected (~100 ml).
Using polypropylene plastic ware, neutrophils are isolated as follows: • 30 ml of the whole blood is added to 50 ml polypropylene centrifuge tubes containing 15 ml of 6% Dextran (in Saline). The blood is allowed to sediment for approximately 1 hour at room temperature.
The turbid straw colored layer harvested from the top of the cylinders into 50 ml conical polypropylene tubes. The blood cells were pelleted by centrifugation at 240 xg (Sorvall centrifuge at 1200 rpm) for 12 min. at 4°C with the brake on low. […]
The supernatant was aspirated and the neutrophil pellet resuspended in 4.0 ml cold PBS (w/o Ca, Mg) on ice. 10 µl of the neutrophil cell suspension was diluted with 990 µl of Trypan blue (1:100) and cells counted using a hemacytometer. The cell number and viability were determined. […]
Neutrophils were resuspended in hypotonic fluorochrome solution at a density of 5×10^6 cells/ml. Propidium iodide fluorescence of individual nuclei was evaluated in FL2 and measured on a logarithmic scale while gating on physical parameters in forward and side scatter to exlude cell debris.
At least 10,000 events per sample were collected and the results were evaluated relative to a non-apoptotic neutrophil population. […]

COC(=O)C[C@H](NC(=O)[C@H](C)NC(=O)[C@@H](NC(=O)OCc1ccccc1)C(C)C)C(=O)CF [zVADfmk] (Cbz-Val-Ala-Asp(OMe)-CH2F)
effect on improving granulocyte survival: weak effect
